Assay results: patent EP3299021A1 (priority 2016, dated 2018)
Read-outs that look alike come from different tables or passages of the source.

Tests used:
mitochondria = conditions: low dose STS, 1 h after reperfusion (Fig. 5a)
Description: The analysis of the ultra-structure of the tissue was performed by TEM. Therefore, the liver had to be perfused with 4 ml/min for 2 min with warm, oxygenated KBH to wash out all blood as described in section 3.4. Afterward, the liver was perfused with fixation buffer pH 7.4 (4 % paraformaldehyde, 2.5 % glutaraldehyde, 0.1 M sodium cacodylate) for 4 min. After the fixation, the liver was removed and cut into 1-2 mm slices. These slides were incubated overnight in the fixation buffer at 4 °C. Subsequently, the slices were cut into cubes and stored in 0.1 M cacodylate buffer.
The samples were embedded in Araldite resin (Piano, Wetzlar, Germany) according to manufacturer's instruction. Semithin sections (1 µm) were stained with Richardson's methylene blue to get a general overview. The areas of the samples were then further trimmed down to 500 x 500 µm. Ultra-thin sections of 80 nm thickness were cut using the ultramicrotome Ultracut E (Reichert-Jung, Wien, Austria). Finally, sections were investigated using a transmission electron microscope EM900 (Zeiss).

hepatic IRI [1] = tested on: hepatic IRI
Description: The mice were imported by embryonic transfer into the animal facility of the Jena University Hospital and conducted under pathogen free conditions. The original mixed Sv129/C57 background was backcrossed to a 99 % C57BL/6 background. In all experiments male WT and Cse^-/- mice between 10 and 12 weeks were used for a standardised hepatic IRI model. […] Body temperature was maintained with a heating plate. During the actual experiment, ischemia was induced in the left lateral lobe of the liver by clamping the hepatic artery and the portal vein using a microaneurysm clamp (FST, Heidelberg, Germany). This procedure results in a segmental (30 %) ischemia. After 1 h, the clamp was removed to initiate the reperfusion. The reperfusion time points were set to 1 h or 24 h. Subsequently, the mice were sacrificed and both, plasma and organs, were harvested. During deep isoflurane (Forene®, Abb-Vie Deutschland GmbH & Co. KG, Ludwigshafen, Germany) anaesthesia, the blood was collected and plasma was generated. Next, the liver, the kidney and the spleen were removed and washed with saline.
The analysis of the ultra-structure of the tissue was performed by TEM. Therefore, the liver had to be perfused with 4 ml/min for 2 min with warm, oxygenated KBH to wash out all blood as described in section 3.4. […]

TOM20 = conditions: for TOM20 signal: immunofluorescence, without STS 258, healthy control 672
Description: In addition to autophagy marker proteins, the translocase of the mitochondrial outer membrane 20 (TOM20) was analysed. […] To detect a possible specific loss of TOM20 in liver cells, immunofluorescence staining was carried out.
Finally, the liver tissue samples were stored for histological and molecular biological analysis.
The total protein content was isolated from the frozen tissue samples by an protein isolation buffer pH 7.5 (10 mM Tris, 250 mM saccharose, 1 mM EDTA, 1 % phosphatase-inhibitor, 1 % protease-inhibitor). To keep organelles and membranes as intact as possible, a tightly fitting Dounce homogenizer (Kimble Chase, Mexico) was used resulting in a mild and mechanical homogenisation. Afterward, the homogenate was centrifuged at 900 x rcf for 10 min at 4 °C. The protein content in the post nucleus supernatant was determined using the BCA assay (Sigma Aldrich, Hamburg, Germany). In addition, the samples were incubated for 15 min at room temperature with Laemmli sample buffer to denature the protein structure.
Afterward, the proteins were separated by size using 4-12 % SDS-gels (NuPAGE® Bis-Tris Gel, Invitrogen, Germany) in a SDS-Gel electrophoresis (XCellSureLock® Mini Gel chamber and NuPAGE®MOPS SDS Running Buffer, Invitrogen, Germany). Subsequently, the proteins were transferred to a PVDF-membrane (Roth, Germany). A blocking solution containing tris-buffered saline and tween 20 (TBST) pH 7.5 (10 mM Tris, 100 mM NaCl, 0.1 % Tween 20) 5 % BSA or skim milk (Sigma-Aldrich, Germany) was used to block unspecific bindings. The membrane was incubated with this solution for 1 h at room temperature. Next, the membrane was incubated with a rabbit polyclonal LC3B antibody (Cell Signaling Technology®, Danvers, USA 1:500 dilution), a rabbit polyclonal TOM20 antibody (Abcam®, Cambridge, UK 1:500 dilution) or a rabbit polyclonal β-actin antibody (Abcam®, Cambridge, UK 1:2,000 dilution) overnight at 4 °C. All primary antibodies were diluted in the blocking solution depending on the manufacture's protocol. After washing the membrane with TBST buffer 3 times, a horseradish peroxidase (HRP)-conjugated secondary antibody (1:5,000) was added for 1 h at room temperature. In the last step, the membrane was washed again with TBST buffer 3 times.
Detection of the secondary antibody by chemiluminescence was performed using HRP substrate (Immobilon Western HRP Substrat, Merck Millipore, USA) by the LAS3000 (GE Healthcare, Frankfurt, Germany). Finally, the target proteins were quantified by densitometric analysis in the software ImageJ (National Institutes of Health, USA). B-actin served as loading control to calculate the differences in the protein expression between the groups.
Immunofluorescence staining was used to investigate the TOM20 localisation. […]

hepatic IRI [2] = conditions: medium dose 0.045 g STS/kg BW into tail vein
Description: Intravital microscopy has been used to analyse the early reperfusion injury in WT and Cse^-/- mice. Assay of plasma parameters and histological staining was applied to analyse later IRI. Rhodamine 123 was injected into the tail vein 5 min before the onset of the experiment. […] The mice were monitored for 2 h without IRI in the sham control group.
In all experiments male WT and Cse^-/- mice between 10 and 12 weeks were used for a standardised hepatic IRI model. One week before the experiments started, 100 µl blood was taken from the orbital sinus. Body temperature was maintained with a heating plate. During the actual experiment, ischemia was induced in the left lateral lobe of the liver by clamping the hepatic artery and the portal vein using a microaneurysm clamp (FST, Heidelberg, Germany). This procedure results in a segmental (30 %) ischemia. […]
IVM was conducted to monitor the mitochondrial membrane potential in vivo with confocal laser scanning microscopy. Therefore, the animals remained under deep general anesthesia using isoflurane and pain reflexes were assessed to gauge the depth of anesthesia. […] Rhodamine 123 was excited at 488 nm (Argon/2 laser) and the emitted light was detected by a monochromatic filter at 530 ± 30 nm (GaAsP detector). […] The standard deviation of the Rhodamine 123 fluorescence signal was calculated to quantify the changes of the mitochondrial granularity over time. […]

liver = conditions: 1 h ischemia and 1 h reperfusion, all STS doses (Fig. 4b)
Description: To implement the ex vivo IRI model, the liver was perfused via the portal vein with oxygenated Krebs-Henseleit buffer for 5 min one-way and 5 min in reverse. Afterwards, the pump was stopped for 1 h followed by 1 h reperfusion. During reperfusion, tissue samples were collected every 10 min.
The method is based on the reaction of GSH with 5,5'-dithiobis(2-nitrobenzoic acid) (DTNB), whereby 2-nitro-5-mercaptobenzoic acid is cleaved, which then leads to a color change. The frozen liver samples were homogenised in a 0.2 M sodium phosphate buffer (pH 8), containing 0.005 M EDTA, and four volumes of 25 % metaphosphoric acid. Subsequently, the samples were centrifuged at 9000 x rcf for 30 min at 4 °C. The absorbance was read at 412 nm using a Spekol 1100 (Carl Zeiss GmbH, Jena, Germany). A standard curve was performed with GSH.
In addition, the GSSG concentration was assessed fluorometrically (fluorescencespectrophotometer F-2000, Hitachi, Tokio, Japan). […] The fluorescence intensity is proportional to the GSSG concentration. […]
Therefore, a monovascular perfusion of the liver through the portal vein (anterograde perfusion) was carried out. […] During the whole experiment, the pressure within the liver was monitored via a pressure transducer (Biopac®Systems Inc, MP150, CA, USA) to control the physiological pressure of the liver. […]

[3] = tested on: mitochondrial respiration chain; type: biochemical, mouse
Description: The mitochondrial integrity and function was analysed by measuring the oxygen consumption of the different complexes in the mitochondrial respiration chain. Therefore, the isolation and oxygen consumption of the mitochondria were based on the protocol of Frezza et al. (Organelle isolation: functional mitochondria from mouse liver, muscle and cultured fibroblasts. Nat Protoc, 2 (2): 287-295, 2007.) with some modifications. All chemicals and kits were supplied by Sigma Aldrich, Germany.
The oxygen consumption was measured by a microcathode oxygen electrode (S1782, Strathkelvin Instruments, Great Britain). The electrodes were calibrated according to the manufacturer's protocol. Mitochondria (1 mg protein) were suspended in 1 ml experimental buffer ([…], 10 mM Tris/MOPS, 40 mM EGTA/Tris 4, […]). As a substrate of complexes II, III and IV, 5 mM succinate was added. The main read out is the "respiratory control ratio (RCR)" that can be calculated by the ratio of "state 3" and "state 4" respiration, which is equivalent to the ratio of ADP-dependent respiration and ADP-independent respiration. […] If the ADP was consumed completely, the slope of the oxygen consumption ("state 4" respiration) looked similar to the "state 2" slope.

| Substance | mitochondrial structure by transmission electron microscopy (mitochondria) | mitochondrial ultrastructure by transmission electron microscopy (hepatic IRI [1]; Cse-/- mice after IRI with STS treatment (Fig. 8b)) | mitochondrial ultrastructure by transmission electron microscopy (hepatic IRI [1]; WT mice after IRI with STS treatment (Fig. 8b)) | TOM20 levels by Western blot (TOM20; healthy controls vs IRI treated livers vs STS treated groups (Fig. 6a)) | TOM20 signal (TOM20; high dose 0.45 g STS/kg BW) | TOM20 signal (TOM20; low dose 0.0045 g STS/kg BW) | TOM20 signal (TOM20; medium dose 0.045 g STS/kg BW) | mitochondrial granularity (hepatic IRI [2]; WT and Cse-/- mice, end of reperfusion (120 min)) | mitochondrial granularity (hepatic IRI [2]; WT mice, beginning of reperfusion (60 min)) | amount of total glutathione (liver) | RCR at higher concentrations [3] | mitochondrial respiratory activity [3] | decline of RCR induced by tert-BOOH oxidative stress ([3]; 200 µM tert-BOOH + 1 µM NaHS (Fig. 3b)) | mitochondrial respiratory activity ([3]; at low doses (Fig. 3a)) | concentration that induced inhibitory effects on respiratory control ratio (RCR) ([3]; isolated mitochondria, 0-100 µM NaHS, no oxidative stress (Fig. 3a)) |
| --- | --- | --- | --- | --- | --- | --- | --- | --- | --- | --- | --- | --- | --- | --- | --- |
| sodium thiosulfate [STS] | retained their normal structure | electron-dense accumulation | normal mitochondrial architecture | no significant differences | 194 positive cells per mm^2 | 305 positive cells per mm^2 | 422 positive cells per mm^2 | This effect was also detected | pronounced recovery of the mitochondrial granularity | significantly decreased by IRI independently on STS treatment | decreased RCR | stimulated mitochondrial respiratory activity |  |  |  |
| sodium hydrogen sulphide [NaHS] |  |  |  |  |  |  |  |  |  |  |  |  | compensated the decline of RCR | stimulated mitochondrial respiratory activity | 100 µM |
